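96-well plates; 48 h exposure; 5 concentrations. Endpoints by linear interpolation between flanking doses. Not reached: highest tested concentration assigned. GI50 = concentration required for 50% inhibition of growth.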 Activity calls are given as the source filed them. Cut-off read from the data, not from the text of the source: active = GI50 up to about 1.1 µM and inactive = higher. Where only a bound is given, the exact number is not on record here.

Among the test systems are DMS-273; M19-MEL; XF498; LXFL 529; KM-20L2; SNB-78; DMS-114; HOP-18; RXF 631.
Experiment in all cases: NCI tumour cell line growth inhibition, 48 h

For `O=C1C(=Cc2cccs2)C(=O)N(CCc2ccccc2)S(=O)(=O)N1CCc1ccccc1`, the GI50 in the assay with DMS-273, in the assay on M19-MEL, in the assay with XF498, with LXFL 529, with KM-20L2 and with SNB-78 was > 50 µM (inactive) throughout. Moreover, the GI50 with DMS-114 was 10.4 µM (inactive); in the assay on HOP-18, > 50 µM (inactive).
Regarding `COC1OC(C)C2OC(C)(C)OC2C1OC(C)=O` (configuration not stated), the GI50 with DMS-273, in the assay on M19-MEL, with XF498, in the assay with LXFL 529, in the assay on KM-20L2 and in the assay on SNB-78 was > 100 µM (inactive) in each case. Further, the GI50 in the assay on RXF 631 and with HOP-18 was > 100 µM (inactive) in each case.
With `Cc1cccc(/N=C/c2ccc(N(CCC#N)S(=O)(=O)c3ccccc3)cc2C)c1`, the GI50 with DMS-273 is > 100 µM (inactive); with M19-MEL, > 100 µM (inactive); in the assay with XF498, > 100 µM (inactive); with LXFL 529, 29.6 µM (inactive); with KM-20L2, > 100 µM (inactive); with DMS-114, 63.7 µM (inactive). Moreover, the GI50 in the assay on RXF 631 is > 100 µM (inactive).
On to `Cc1[nH]c2ccccc2c1C(=O)/C=C/c1ccccc1O`, for which the GI50 with DMS-273, in the assay on M19-MEL, in the assay with XF498, in the assay on LXFL 529, with KM-20L2 and in the assay with HOP-18 was > 100 µM (inactive) throughout.
With `Cc1ccc(S(=O)(=O)C(C#N)c2nc3ccccc3nc2-n2cccn2)cc1` (configuration not stated), the GI50 in the assay on DMS-273, in the assay with M19-MEL, in the assay with XF498, in the assay on LXFL 529, in the assay on SNB-78 and with DMS-114 was > 100 µM (inactive) in each case. Also, the GI50 in the assay on HOP-18 is 86.9 µM (inactive).
As to `CC(=O)OC[C@@H]1[C@H]2CC(=O)O[C@H]2C[C@H]1OC(C)=O`, the GI50 with DMS-273, with M19-MEL, in the assay with LXFL 529, with KM-20L2, in the assay with SNB-78 and in the assay with DMS-114 was > 100 µM (inactive) throughout. For the same compound, in the assay on HOP-18, the GI50 is > 100 µM (inactive).
On to `CC[C@@]1(OC(=O)C(N)CCCCN)C(=O)OCc2c1cc1n(c2=O)Cc2cc3ccccc3nc2-1` (some centres not stated), for which the GI50 in the assay on DMS-273 is < 0.01 µM (active); with M19-MEL, 0.0619 µM (active); in the assay with XF498 it was 0.201 µM (active); in the assay on LXFL 529, 0.372 µM (active); with KM-20L2 it was 0.166 µM (active); in the assay on SNB-78, 0.372 µM (active). The GI50 with DMS-114 was < 0.0157 µM (active); in the assay with HOP-18 it was 0.0785 µM (active).
On to `C=CCC1(CN(C)C)CC/C(=C\c2ccc(Cl)cc2)C1=O` (configuration not stated), for which the GI50 with DMS-273 is 24.7 µM (inactive); with M19-MEL, 32.3 µM (inactive); in the assay with XF498, 77.6 µM (inactive); with LXFL 529 it was 27.5 µM (inactive); in the assay with KM-20L2, 22.8 µM (inactive); in the assay with SNB-78 it was 27.4 µM (inactive). Moreover, the values for the GI50 with DMS-114 and with HOP-18 were 27.4 µM (inactive) and > 54.1 µM (inactive), respectively.
With `C=C1C(=O)OC2C=C(CCC(C)=O)C(C)C(OC(C)=O)CC12` (configuration not stated), the GI50 is 14.6 µM (inactive) in the assay on M19-MEL; 12.9 µM (inactive) in the assay with XF498; 0.447 µM (active) with LXFL 529; 4.89 µM (inactive) with KM-20L2; 7.94 µM (inactive) in the assay on SNB-78; 11.7 µM (inactive) in the assay with HOP-18.
As to `CN(C)CCNC(=O)c1cccc2cc3ccc4ccccc4c3nc12`, the GI50 with DMS-273 is 0.0224 µM (active); in the assay with XF498, 0.056 µM (active); in the assay on LXFL 529 it was 0.128 µM (active); in the assay on KM-20L2, 0.136 µM (active); with SNB-78, 0.182 µM (active); in the assay with HOP-18, 0.205 µM (active).
In the case of `Cc1ccc(S(=O)(=O)N/N=C(\c2nc3ccc([N+](=O)[O-])cc3nc2O)C(O)c2ccccc2Cl)cc1` (configuration not stated), the GI50 with DMS-273 was > 100 µM (inactive); in the assay on M19-MEL, 86.9 µM (inactive); in the assay with LXFL 529, 35.8 µM (inactive); in the assay on KM-20L2, > 100 µM (inactive); in the assay on SNB-78, > 100 µM (inactive); in the assay with DMS-114 it was 16.7 µM (inactive). The GI50 in the assay with RXF 631 and in the assay on HOP-18 was > 100 µM (inactive) each time.
As to `O=C(CC1(O)C(=O)Nc2c(Cl)cc(Cl)cc21)c1ccc(F)cc1` (configuration not stated), the GI50 is 38.2 µM (inactive) in the assay on DMS-273; 19 µM (inactive) in the assay on M19-MEL; 14.4 µM (inactive) in the assay on XF498; 31.9 µM (inactive) in the assay with LXFL 529; 53 µM (inactive) with KM-20L2; 83.9 µM (inactive) with SNB-78. Besides, the GI50 in the assay with DMS-114 was 23.9 µM (inactive); with RXF 631, 32.5 µM (inactive); in the assay with HOP-18 it was 72.1 µM (inactive).
As for `Cc1cc(C)nc(NS(=O)(=O)c2ccc(NC(=O)c3cccc4cc5ccccc5nc34)cc2)n1`, the GI50 is 21.9 µM (inactive) with DMS-273; 28.2 µM (inactive) with M19-MEL; 25.3 µM (inactive) in the assay on XF498; 36.1 µM (inactive) in the assay on LXFL 529; 37.2 µM (inactive) in the assay on KM-20L2; 25.2 µM (inactive) with SNB-78. For the same compound, the GI50 in the assay on RXF 631 was 28.5 µM (inactive).
On to `COC(=O)CCSC(=O)Nc1ccccc1Cl`, for which the GI50 in the assay with DMS-273, with LXFL 529, in the assay on KM-20L2, in the assay with SNB-78 and in the assay with DMS-114 was > 100 µM (inactive) in each case.
As to `Cc1ccc(/C=N/NS(=O)(=O)c2ccccc2)cc1`, the GI50 in the assay on DMS-273, in the assay on XF498, in the assay on LXFL 529, with KM-20L2, with SNB-78 and in the assay on DMS-114 was > 100 µM (inactive) each time. For the same compound, the GI50 in the assay with RXF 631 and with HOP-18 was > 100 µM (inactive) throughout.
On to `CC1(C)C(O)OC(O)C1(C)C` (configuration not stated), for which the GI50 with DMS-273 was 70.5 µM (inactive); with M19-MEL, > 100 µM (inactive); with XF498 it was 47 µM (inactive); in the assay on LXFL 529 it was 74 µM (inactive); in the assay on KM-20L2, > 100 µM (inactive); with SNB-78, > 100 µM (inactive). Moreover, the results for the GI50 in the assay on DMS-114, in the assay on RXF 631 and in the assay on HOP-18 were > 100 µM (inactive), 61 µM (inactive) and 49.1 µM (inactive), respectively.
As for `COC1(C)C(=O)N2C1N(C(=O)OCc1ccccc1)CC2(C)C` (configuration not stated), the GI50 with DMS-273, with M19-MEL, in the assay with XF498, in the assay on LXFL 529, with KM-20L2 and in the assay with DMS-114 was > 100 µM (inactive) in each case.
Consider `O=C(N/C(=C\c1cccc([N+](=O)[O-])c1)c1nc2c3c(ccc2[nH]1)C(=O)c1ccccc1C3=O)c1ccccc1`, for which the GI50 in the assay on XF498 is 57.9 µM (inactive); in the assay with LXFL 529 it was 16 µM (inactive); in the assay with KM-20L2 it was 30.2 µM (inactive); in the assay with SNB-78, > 100 µM (inactive); with DMS-114 it was 26.4 µM (inactive); with HOP-18 it was > 100 µM (inactive).
For `COc1ccc(C(c2ccc(C(C)C)cc(OC)c2=O)c2ccc(C(C)C)cc(OC)c2=O)cc1`, the GI50 in the assay with DMS-273 was 14.8 µM (inactive); in the assay with M19-MEL it was 14.1 µM (inactive); in the assay with XF498, 20.4 µM (inactive); in the assay with LXFL 529, 14.5 µM (inactive); with KM-20L2, 14.1 µM (inactive); in the assay on SNB-78, 13.2 µM (inactive). In addition, the values for the GI50 in the assay with DMS-114, with RXF 631 and in the assay on HOP-18 were 12.3 µM (inactive), 15 µM (inactive) and 25.4 µM (inactive), respectively.
Take `Nc1ccn([C@@H]2C=C(CO)[C@@H](O)[C@H]2O)c(=O)n1`: the GI50 in the assay on DMS-273 is 0.256 µM (active); with M19-MEL, 0.308 µM (active); in the assay with XF498 it was 6.22 µM (inactive); in the assay with KM-20L2, 0.0912 µM (active); in the assay on SNB-78, 3.28 µM (inactive); with DMS-114 it was 0.417 µM (active). Besides, the GI50 in the assay on HOP-18 was 8.09 µM (inactive).
`COc1ccc2c(c1)c(=O)c1c(NCCN(C)C)ccc3nnn2c31`: the GI50 is 6.61 µM (inactive) in the assay on M19-MEL; 2.91 µM (inactive) in the assay with LXFL 529; 1.15 µM (inactive) with KM-20L2; 4.35 µM (inactive) in the assay with SNB-78; 3.64 µM (inactive) in the assay on DMS-114; 2.21 µM (inactive) with RXF 631. In the assay on HOP-18, the GI50 is 0.504 µM (active).

The values above are taken from ChEMBL document CHEMBL1201862, “PubChem BioAssay data set” (2004).
